For data set [1], the system named is A53T mutant α-synuclein-overexpressing PD model rats. Nature of the data set: A53T mutant α-synuclein rat model: TH staining. The data set is classed as in vivo. Particulars: 10 mg/kg/day for 15 days starting 3 weeks after virus injection. From the text: Throughout the study, confounders were not controlled.
A short description of data set [2]: H2O2 scavenging capacity test (Amplex red/HRP). The settings on record: 10 min incubation with H2O2 at RT. The method, then: To determine the H2O2 scavenging capacity of the test compound, H2O2 concentration was measured using the modified Amplex red/horseradish peroxidase (HRP) detection method as described previously. Briefly, a H2O2 solution was incubated with the test compound for 10 min at room temperature (RT), and then the reaction solution containing 20 mM Amplex red and 200 U/mL HRP was added. The absorbance was measured at 570 nm using a microplate reader. The H2O2 scavenging capacities were compared to a blank negative control and to the known H2O2 scavenger epigallocatechin gallate (EGCG) as a positive control.

For data set [3], the system named is MPTP-induced PD mouse model. Nature of the data set: MPTP mouse model: TH (DAB) and Nissl staining of SNpc and striatum. Particulars: MPTP mice; for TH optical density in the striatum / TH-positive cell number in the SNpc: vs MPTP plus vehicle.
Protocol: (§5) Group allocation and outcome assessment, but not the conduct of experiments and data analysis, were performed in a blinded manner. Throughout the study, confounders were not controlled. An acclimation period of 7 days was allowed for animals to stabilize in a new environment before model induction. […] Treatment drugs were dissolved in 100 μL of water and total dose (in mg) was calculated according to individual body weight (in kg). […] An experiment was halted if body weight decreased by 20% or more after MPTP or 6-hydroxydopamine (6-OHDA) treatment.
The MPTP model was established using the acute regimen of four intraperitoneal (i.p.) injections of MPTP-HCl (M0896, Sigma Aldrich, 2 mg/mL in saline, 20 mg/kg for one injection) at 2-h intervals. All MPTP use and safety precautions were strictly followed as described [18].
Coronal sections for striatum and SNpc were prepared at 30-μm thickness and immunostained using a DAB staining kit (TL-060-QHD, Thermo, MA, USA). […] After washing in PBS 3 times, sections were incubated in Primary Antibody Amplifier Quanto (TA-060-QPB, Thermo) for 5 min, washed again in PBS, incubated in HRP Polymer Quanto for 1 h, washed 4 times in PBS, and dipped for 30 s in a 1:10 mixture of DAB + chromogen and DAB + substrate buffer (K3468, Dako, Denmark). Finally, sections were washed, immersed in mounting medium, and dried.
Every 6th section including the SN was stained with anti-TH and the number of TH-positive neurons counted under low magnification (× 10) from the rostral tip of the SNpc to the caudal end of the substantia nigra pars reticulate (SNpr). […] The total number of neurons per section was estimated according to the optical fractionator formula. The total number of SNpc neurons in a hemisphere was then obtained by multiplying the number counted using Stereo Investigator 11 by the slice interval (six).
Other 30-μm-thick coronal sections from the SNpc were Nissl stained to assess viable cell number. Briefly, slices were stained with 0.1% cresyl violet solution for 3 min, rinsed with distilled water, and placed in a chamber filled with 70% ethanol for 1 min. […] A series of bright field images were obtained using an Olympus microscope. The slices were classified according to AP coordinates and Nissl-positive neurons counted using the counting tool of ImageJ (NIH, MD, USA).
A short description of data set [4]: Oral toxicity studies in cynomolgus monkeys (N217019, G217013, G218027). It counts as in vivo, cynomolgus monkey (Macaca fascicularis). The settings on record: cynomolgus monkey, in vivo; cynomolgus monkeys, both sexes, 4-week repeated oral dosing; read-out: No Observed Adverse Effect Level (NOAEL). The method, then:
(§1) All non-human primate studies were conducted in the Good Laboratory Practice (GLP)-level laboratory of the Korea Institute of Toxicology (KIT, Jeollabuk-do, Korea) and approved by the KIT Institutional Animal Care and Use Committee. Cynomolgus monkeys (Macaca fascicularis) were obtained from the Nafovanny captive-breeding primate facility (Dong Nai Province, Vietnam) and housed individually in stainless cages (543 W × 715L × 818H in mm) during acclimation, pre-treatment, and dosing periods. All animals were at least 24 months old. The environment of the animal room was automatically controlled according to the Standard Operating Procedures of KIT (temperature: 20–29°C, relative humidity: 30–70%, light cycle: 12 h at 300–700 Lux, ventilation: 10–20 times/h, air pressure: negative). Males and females were assigned to treatment groups in a stratified manner using the Pristima System based on most recent body weight. Clinical signs, including mortality, moribundity, general appearance, and behavioral changes, were recorded with date, time, and duration. Body weight was measured prior to the first KDS2010 dose. For oral administration, KDS2010 was dissolved in water. In total, 42 monkeys were administered KDS2010 and ultimately sacrificed for autopsy. The four studies conducted on cynomolgus monkeys are summarized in Table 1 and described in greater detail below.
(§2) In the single-dose escalation study (N118029), each male and female monkey was administered oral KDS2010 at increasing doses of 25, 50, and 100 mg/kg/day once a week. Mortality and general symptoms were observed during the trial period. Body weight was also measured. Blood was collected for hematology, coagulation, and clinical chemistry tests pre-dose (0) and 8, 15, and 22 days post-dose. After administration of 100 mg/kg/day on day 22, an autopsy was performed to observe individual macroscopic findings.
(§3) In the repeated 2-week oral administration toxicity study (G217013) for 4-week dose range finding (DRF), monkeys were assigned to 4 groups of one male and one female. Each group was orally administered KDS2010 at 0, 25, 50, or 100 mg/kg/day once a day for 2 weeks. During the test period, general symptoms were monitored, weight and feed intake measured, and ophthalmological tests performed. Clinical pathological tests (hematology, coagulation, blood biochemistry, and urine tests) were also conducted. All animals were autopsied, during which individual macroscopic findings were recorded, organ weights measured, and samples obtained for histopathology.
(§4) In the repeated 4-week oral administration toxicity with 2-week recovery and toxicokinetic test (G218027), monkeys were assigned to 4 groups of 3 males and 3 females. Each group was orally administered KDS2010 at 0, 10, 20, or 40 mg/kg/day once a day for 4 weeks. Toxicity tests were conducted as described for study G217013. For toxicokinetic measurements, blood samples were collected pre-dose (time 0) and at 1, 2, 4, 6, 8, 10, and 24 h after oral administration on the first day (day 1) and the last day (week 4; day 28) of dosing.

In data set [5] the test system is cynomolgus monkeys. The description is as above. It counts as in vivo, cynomolgus monkey (Macaca fascicularis). The method, then:
as §1, §2, §3, §4

The nature of data set [6]: Toxicokinetics in 4-week repeated-dose study in cynomolgus monkeys (G218027). The data set is classed as in vivo, cynomolgus monkey (Macaca fascicularis). On the procedure:
as §4
A non-compartmental analysis module in Phoenix® WinNonlin® (version 6.4) (Certara Inc., CA, USA) was used to calculate pharmacokinetic (PK) parameters. Systemic exposure to KDS2010 was calculated by applying the linear trapezoidal rule to the area under the plasma concentration–time curve from time zero to the last quantifiable time point (AUClast), and the maximum observed peak plasma concentration (Cmax) and the time to reach Cmax (Tmax) were determined based on the observed data. The apparent terminal elimination half-life (t1/2) was calculated from the apparent terminal elimination rate constant using the formula t1/2 = 0.693/kel.

The subject of data set [7] is 6-OHDA model rats. Kind of data set: 6-OHDA rat model: stepping test, rotarod test, TH. Particulars: 6-OHDA rats. For orientation: In the rotarod test animals must keep their balance on a rotating rod.
Protocol: as §5
Finally, the 6-OHDA model was prepared as previously described [21]. Under general anesthesia, all rats received unilateral injections of 8 μg 6-OHDA (Sigma Aldrich) in 4 μL saline/0.1% ascorbic acid into the right medial forebrain bundle (AP − 2.2 mm and L + 1.5 mm relative to the bregma, V − 8.0 mm from the dura) [19], with the tooth bar set at + 4.5 mm.
Motor deficits of 6-OHDA and A53T mutant α-synuclein model rats were assessed as previously described with slight modifications [27]. Briefly, both hind limbs and one forelimb were firmly fixed in the two hands of the experimenter, and the rat was lowered over a treadmill moving at rate of 18 cm/s such that the body remained stationary while the free forelimb was allowed to spontaneously touch the moving treadmill track for 10 s. All experimental sessions were video recorded to count the number of adjusting steps taken in the backward direction. The number of adjusting steps was averaged across four trials in each session.
In addition, impaired motor coordination of 6-OHDA model rats was examined using the rotarod test as previously described with slight modifications [28]. […] Before the first rotarod test, all rats were pre-trained until riding time reached 60 s at 10 rpm (B.S Technolab, Seoul, Korea). Each session consisted of two trials, and riding time was averaged to obtain pre-6-OHDA, 0d, 7d, and 15d results.

Molecules are shown by their SMILES.

Usually NOAEL stands for the highest dose or exposure tested at which no adverse effect was seen. What is called Tmax is the time from dosing to the highest level.

As to `C[C@H](NCc1ccc(-c2ccc(C(F)(F)F)cc2)cc1)C(N)=O` [Compound 18j], in data set [1], the “number of remaining TH-positive neurons in the injected SNpc” value is “increased” and the “striatal TH loss” value is on record as “significantly reversed”. In addition, the H2O2 scavenging effect result in data set [2] is “did not show any H2O2 scavenging effect”. In data set [3] (post-treatment), the “MPTP-induced reduction in Nissl-positive neurons in SNpc” value is recorded as “but not post-treatment”, the “TH optical density in the striatum” value is “significantly increased” and the “TH-positive cell number in the SNpc” value is recorded as “significantly increased”. In addition, in data set [3] (pre-treatment), the “MPTP-induced reduction in Nissl-positive neurons in SNpc” value is recorded as “partially prevented”, the “TH optical density in the striatum” value is “significantly increased” and the “TH-positive cell number in the SNpc” value is recorded as “significantly increased”. Moreover, in data set [4], the no-observed-adverse-effect level (NOAEL) at 4 weeks worked out at 40 mg/kg/day. The “maximum dose determined in 2-week DRF study (G217013)” value in data set [5] (cynomolgus monkeys, 0, 25, 50, 100 mg/kg/day p.o. for 2 weeks) worked out at 50 mg/kg/day. Moreover, in data set [5] (cynomolgus monkeys, 10, 20, 40 mg/kg/day p.o. for 4 weeks), the “adverse effects in toxicity examinations” value was “no adverse effects were observed”. In data set [5] (cynomolgus monkeys, 25, 50 and 100 mg/kg p.o.), the “findings in single-dose escalation toxicity study (N217019)” value is given as “no general symptoms, clinical pathological, or gross organ pathology”. The “changes in body weight” value in data set [5] (cynomolgus monkeys, male and female, 10, 20, 40 mg/kg/day p.o. for 4 weeks) is on record as “no significant changes”. Besides, in data set [6] (both sexes, cynomolgus monkey, plasma, po, cynomolgus monkeys, 10, 20 or 40 mg/kg/day p.o.), the Tmax was determined as 4.72 ± 1.93 h. Also, the “dose-dependent increase of AUClast” value in data set [6] (cynomolgus monkeys, 10, 20, 40 mg/kg/day p.o.) was “slightly less than proportional”. Also, in data set [7] (10 mg/kg/day for 15 days starting 17 days post-6-OHDA), the “stepping test: stepping behavior deficit of the contralateral forepaw” value is recorded as “partially but significantly improved”. The “rotarod test: reduction in riding time (latency to fall)” value in data set [7] (15 days' treatment starting 17 days after 6-OHDA) is listed as “partially reversed”. Also, the “nigrostriatal TH loss” value in data set [7] (data not shown) is reported as “not reversed”.

For the origin of these results see PMC8608967, “KDS2010, a Newly Developed Reversible MAO-B Inhibitor, as an Effective Therapeutic Candidate for Parkinson’s Disease” (Neurotherapeutics, 2021).
